Source: patent publication US8431580B2, “4-aminopyrimidine derivatives as histamine H4 receptor antagonists” (Palau Pharma, S.A., priority 2007, dated 2013)

Assays:
human eosinophils = assay: Histamine-induced shape change assay (Gated Autofluorescence Forward Scatter assay, GAFS) in human eosinophils; type: cell-based; settings: Eosinophil, stimulated with 300 nM histamine
Protocol: Histamine-induced Shape Change Assay (Gated Autofluorescence Forward Scatter Assay, GAFS) in Human Eosinophils
In this assay the shape change induced by histamine in human eosinophils is determined by flow cytometry, detected as an increase in the size of the cells (forward scatter, FSC).
Polymorphonuclear leucocytes (PMNL, fraction containing neutrophils and eosinophils) were prepared from whole blood of human healthy volunteers. Briefly, erythrocytes were separated by sedimentation in 1.2% Dextran (SIGMA), and the leucocyte-rich fraction (PMNL) was isolated from the top layer by centrifugation at 450 g for 20 min in the presence of Ficoll-Paque® (Biochrom). PMNLs were resuspended in PBS buffer at a concentration of 1.1×10^6 cells/ml/tube and were pretreated with different concentrations of test compounds (dissolved in PBS) for 30 min at 37° C. and then stimulated with 300 nM histamine (Fluka) for 5 min. Finally, paraformaldehyde (1% final concentration in PBS) was added to terminate the reaction and maintain cell shape. Cell shape change was analyzed by flow cytometry (FACS Calibur, BD Biosystems). Eosinophils in PMNL were gated based on their higher autofluorescence relative to that of neutrophils (fluorescence channel FL2). Cell shape change was monitored in forward scatter signals (FSC). Results are expressed as percentage inhibition of shape change induced by histamine for each concentration of test compound.

[1] = biological target: T1, human histamine H4 receptor (Homo sapiens, UniProt Q9H3N8); assay: Competitive binding assay of [3H]-histamine to the human histamine H4 receptor; settings: 10 nM [3H]-histamine, CHO membrane extract; for inhibition at 1 µM: at a concentration of 1 μM
T1 construct: purchased Euroscreen/Perkin-Elmer
Protocol: Competitive Binding Assay of [^3H]-histamine to the Human Histamine H4 Receptor
To perform the binding assay, membrane extracts prepared from a stable CHO recombinant cell line expressing the human histamine H4 receptor (Euroscreen/Perkin-Elmer) were used.
The compounds to be tested were incubated at the desired concentration in duplicate with 10 nM [^3H]-histamine and 15 μg membrane extract in a total volume of 250 μL of 50 mM Tris-HCl, pH 7.4, 1.25 mM EDTA for 60 minutes at 25° C. Non-specific binding was defined in the presence of 100 μM of unlabelled histamine. The reaction was stopped by filtration using a vacuum collector (Multiscreen Millipore) in 96-well plates (MultiScreen HTS Millipore) that had been previously soaked in 0.5% polyethylenimine for 2 hours at 0° C. The plates were subsequently washed with 50 mM Tris (pH 7.4), 1.25 mM EDTA at 0° C., and the filters were dried for 1 hour at 50-60° C., before adding the scintillation liquid in order to determine bound radioactivity by means of a betaplate scintillation counter.

inhibition at 10 µM [1] [%]	inhibition at 1 µM [1] [%]	SMILES	inhibition at 1 µM (human eosinophils) [%]
> 50	–	CNC1CN(c2cc(N)nc(C3CCC3)n2)C1 [Example 17, 2-Cyclobutyl-6-(3-(methylamino)azetidin-1-yl)pyrimidin-4-amine]	> 50
> 50	–	CN[C@@H]1CCN(c2cc(N)nc(CC(C)(C)C)n2)C1 [Example 22, 2-(2,2-Dimethylpropyl)-6-((3R)-3-(methylamino)pyrrolidin-1-yl)pyrimidin-4-amine]	> 50
–	> 50	CN[C@@H]1CCN(c2cc(N)nc(C(C)(C)C)n2)C1 [Example 11, 2-tert-Butyl-6-((3R)-3-(methylamino)pyrrolidin-1-yl)pyrimidin-4-amine]	> 50
> 50	–	CNC1CN(c2cc(N)nc(C3CC3)n2)C1 [Example 5, 2-Cyclopropyl-6-(3-(methylamino)azetidin-1-yl)pyrimidin-4-amine]	–
> 50	–	CNC1CN(c2cc(N)nc(CC(C)C)n2)C1 [Example 4, 2-Isobutyl-6-(3-(methylamino)azetidin-1-yl)pyrimidin-4-amine]	> 50
> 50	–	CNC1CN(c2cc(N)nc(C(C)C)n2)C1 [Example 7, 2-Isopropyl-6-(3-(methylamino)azetidin-1-yl)pyrimidin-4-amine]	–
–	> 50	CN[C@@H]1CCN(c2cc(N)nc(C(C)C)n2)C1 [Example 12, 2-Isopropyl-6-((3R)-3-(methylamino)pyrrolidin-1-yl)pyrimidin-4-amine]	> 50
> 50	–	CNC1CN(c2cc(N)nc(CC(C)(C)C)n2)C1 [Example 21, 2-(2,2-Dimethylpropyl)-6-(3-(methylamino)azetidin-1-yl)pyrimidin-4-amine]	> 50
> 50	–	CNC1CN(c2cc(N)nc(C(C)(C)C)n2)C1 [Example 6, 2-tert-Butyl-6-(3-(methylamino)azetidin-1-yl)pyrimidin-4-amine]	–
–	> 50	CN[C@@H]1CCN(c2cc(N)nc(C3CC3)n2)C1 [Example 10, 2-Cyclopropyl-6-((3R)-3-(methylamino)pyrrolidin-1-yl)pyrimidin-4-amine]	–
> 50	–	CN[C@@H]1CCN(c2cc(N)nc(CC(C)C)n2)C1 [Example 1, 2-Isobutyl-6-((3R)-3-(methylamino)pyrrolidin-1-yl)pyrimidin-4-amine]	> 50
> 50	–	CNC1CN(c2cc(N)nc(C3CCCC3)n2)C1 [Example 19, 2-Cyclopentyl-6-(3-(methylamino)azetidin-1-yl)pyrimidin-4-amine]	> 50

More lines, now with the values behind:

SMILES	inhibition at 10 µM [1] [%]	inhibition at 1 µM [1] [%]	inhibition at 1 µM (human eosinophils) [%]
CNC1CN(c2cc(N)nc(Cc3ccc(F)cc3)n2)C1 [Example 3, 2-(4-Fluorobenzyl)-6-(3-(methylamino)azetidin-1-yl)pyrimidin-4-amine]	> 50	–	> 50
CN[C@@H]1CCN(c2cc(N)nc(C3CCC3)n2)C1 [Example 18, 2-Cyclobutyl-6-((3R)-3-(methylamino)pyrrolidin-1-yl)pyrimidin-4-amine]	> 50	–	> 50
CN[C@@H]1CCN(c2cc(N)nc(CC3CCCCC3)n2)C1 [Example 2, 2-Cyclohexylmethyl-6-((3R)-3-(methylamino)pyrrolidin-1-yl)pyrimidin-4-amine]	> 50	–	> 50
CNC1CN(c2cc(N)nc(COc3ccccc3)n2)C1 [Example 9, 6-(3-(methylamino)azetidin-1-yl)-2-(phenoxymethyl)pyrimidin-4-amine]	> 50	–	–
CN[C@@H]1CCN(c2cc(N)nc(COc3ccccc3)n2)C1 [Example 13, 6-((3R)-3-(methylamino)pyrrolidin-1-yl)-2-(phenoxymethyl)pyrimidin-4-amine]	> 50	–	–
CC(C)Cc1nc(N)cc(N2CC[C@@H](N)C2)n1 [Example 16, 6-((3R)-3-aminopyrrolidin-1-yl)-2-isobutylpyrimidin-4-amine]	> 50	–	–
CNC1(C)CN(c2cc(N)nc(CC(C)C)n2)C1 [Example 15, 2-Isobutyl-6-(3-methyl-3-(methylamino)azetidin-1-yl)pyrimidin-4-amine]	> 50	–	> 50
CN[C@@H]1CCN(c2cc(N)nc(CCC3CCCC3)n2)C1 [Example 23, 2-(2-Cyclopentylethyl)-6-((3R)-3-(methylamino)pyrrolidin-1-yl)pyrimidin-4-amine]	> 50	–	–
CC(C)Cc1nc(N)cc(N2CC(N)C2)n1 [Example 14, 6-(3-Aminoazetidin-1-yl)-2-isobutylpyrimidin-4-amine]	> 50	–	–
CN[C@@H]1CCN(c2cc(N)nc(C3CCCC3)n2)C1 [Example 20, 2-Cyclopentyl-6-((3R)-3-(methylamino)pyrrolidin-1-yl)pyrimidin-4-amine]	> 50	–	> 50
